Measured values published in patent US11597724B2, “Herbicidally active 3-phenylisoxazoline-5-carboxamides of tetrahydro and dihydrofuran carboxylic acids and esters” (Bayer Aktiengesellschaft, priority 2017, dated 2023).

What was measured:
Type in all cases: in vivo
Setaria viridis = experiment: Post-emergence herbicidal activity against SETVI; conditions: dosage 320 g/ha, rated about 3 weeks after treatment; for pest or weed control at 320 g/ha: Setaria viridis, 504 h
How it was run: (§1)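 Greenhouse weeds in sandy loam were sprayed at the one-leaf stage, 2–3 weeks after sowing, with WP or EC formulations plus 0.5% additive at 600 l/ha water. About 3 weeks later, damage was rated visually against untreated controls, where 100% means plants dead and 0% means like control.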

Polygonum convolvulus = experiment: Post-emergence herbicidal activity against POLCO; conditions: dosage 320 g/ha, rated about 3 weeks after treatment; for pest or weed control at 320 g/ha: Fallopia convolvulus, 504 h
How it was run: as §1

Alopecurus myosuroides = experiment: Pre-emergence herbicidal activity against ALOMY; conditions: dosage 80 g/ha, scored visually after about 3 weeks vs untreated controls (100% = plants have died, 0% = like control plants); for pest or weed control at 80 g/ha: Alopecurus myosuroides, 504 h
Excerpt: 1. Pre-Emergence Herbicidal Action and Crop Plant Compatibility Seeds of monocotyledonous and dicotyledonous weed plants and crop plants are placed in plastic or wood fiber pots and covered with soil. The compounds of the invention, formulated in the form of wettable powders (WP) or as emulsion concentrates (EC), are then applied onto the surface of the covering soil as aqueous suspension or emulsion with addition of 0.5% additive at a water application rate of 600 l/ha (converted). After the treatment, the pots are placed in a greenhouse and kept under good growth conditions for the trial plants. After about 3 weeks, the effect of the preparations is scored visually in comparison with untreated controls as percentages. For example, 100% activity=the plants have died, 0% activity=like control plants. ABUTH: Abutilon theophrasti ALOMY: Alopecurus myosuroides

Stellaria media = experiment: Post-emergence herbicidal activity against STEME; conditions: dosage 320 g/ha, rated about 3 weeks after treatment; for pest or weed control at 320 g/ha: Stellaria media, 504 h
How it was run: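 Greenhouse plants treated at one-leaf stage, 2–3 weeks after sowing, by spraying WP or EC formulations with 0.5% additive at 600 l/ha water. Visual rating about 3 weeks later versus untreated controls (100% = plants dead, 0% = like controls).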

Avena fatua = experiment: Post-emergence herbicidal activity against AVEFA; conditions: dosage 320 g/ha, rated about 3 weeks after treatment; for pest or weed control at 320 g/ha: Avena fatua, 504 h
How it was run: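 Greenhouse pots of sandy loam; plants sprayed at one-leaf stage, 2 to 3 weeks after sowing, with WP or EC formulations in water plus 0.5% additive at 600 l/ha. Activity rated visually after about 3 weeks against untreated controls (100% = plants dead, 0% = like control).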

Abutilon theophrasti = experiment: Post-emergence herbicidal activity against ABUTH; conditions: dosage 320 g/ha, rated about 3 weeks after treatment; for pest or weed control at 320 g/ha: Abutilon theophrasti, 504 h
How it was run: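 Greenhouse-grown plants treated at one-leaf stage, 2 to 3 weeks after sowing, with WP or EC formulations sprayed as aqueous suspension/emulsion plus 0.5% additive at 600 l/ha. Activity rated visually about 3 weeks later versus untreated controls (100% = plants dead, 0% = like control).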

Structure (SMILES): CC1(C(=O)NC2COC(C(=O)O)C2)CC(c2cc(F)cc(F)c2)=NO1 (mixture of isomers) [I-41]
- Post-emergence herbicidal activity against SETVI in % (Setaria viridis): 90%
- Post-emergence herbicidal activity against POLCO in % (Polygonum convolvulus): 90%
- Pre-emergence herbicidal activity against ALOMY in % (Alopecurus myosuroides): 100%
- Post-emergence herbicidal activity against STEME in % (Stellaria media): 90%
- Post-emergence herbicidal activity against AVEFA in % (Avena fatua): 100%
- Post-emergence herbicidal activity against ABUTH in % (Abutilon theophrasti): 80%

Structure (SMILES): COC(=O)[C@H]1C[C@H](NC(=O)[C@@]2(C)CC(c3cc(F)cc(F)c3)=NO2)CO1 (mixture of isomers) [I-55, methyl trans-4-[[(5R)-3-(3,5-difluorophenyl)-5-methyl-4H-isoxazole-5-carbonyl]amino]tetrahydrofuran-2-carboxylate]
- pest or weed control at 320 g/ha (Setaria viridis): 90%
- pest or weed control at 320 g/ha (Polygonum convolvulus): 90%
- pest or weed control at 320 g/ha (Stellaria media): 90%
- pest or weed control at 320 g/ha (Avena fatua): 90%
- pest or weed control at 320 g/ha (Abutilon theophrasti): 90%

Structure (SMILES): C=C[C@]1(C(=O)N[C@@H]2CO[C@@H](C(=O)OC)C2)CC(c2cc(F)cc(F)c2)=NO1 (mixture of isomers) [I-56, methyl trans-4-[[(5S)-3-(3,5-difluorophenyl)-5-vinyl-4H-isoxazole-5-carbonyl]amino]tetrahydrofuran-2-carboxylate]
- pest or weed control at 320 g/ha (Setaria viridis): 90%
- pest or weed control at 320 g/ha (Polygonum convolvulus): 90%
- pest or weed control at 320 g/ha (Stellaria media): 90%
- pest or weed control at 320 g/ha (Avena fatua): 100%
- pest or weed control at 320 g/ha (Abutilon theophrasti): 90%

Structure (SMILES): CCOC(=O)[C@H]1C[C@@H](NC(=O)C2(C)CC(c3cccc(F)c3)=NO2)CO1 (mixture of isomers) [I-30, ethyl cis-4-[[(5RS)-3-(3-fluorophenyl)-5-methyl-4H-isoxazole-5-carbonyl]amino]tetrahydrofuran-2-carboxylate]
- pest or weed control at 320 g/ha (Setaria viridis): 90%
- pest or weed control at 320 g/ha (Polygonum convolvulus): 80%
- pest or weed control at 80 g/ha (Alopecurus myosuroides): 100%
- pest or weed control at 320 g/ha (Stellaria media): 90%
- pest or weed control at 320 g/ha (Avena fatua): 100%

Structure (SMILES): CC(C)OC(=O)[C@H]1C[C@@H](NC(=O)C2(C)CC(c3cccc(F)c3)=NO2)CO1 (mixture of isomers) [I-32, isopropyl cis-4-[[(5RS)-3-(3-fluorophenyl)-5-methyl-4H-isoxazole-5-carbonyl]amino]tetrahydrofuran-2-carboxylate]
- pest or weed control at 320 g/ha (Setaria viridis): 90%
- pest or weed control at 320 g/ha (Polygonum convolvulus): 80%
- pest or weed control at 80 g/ha (Alopecurus myosuroides): 100%
- pest or weed control at 320 g/ha (Stellaria media): 90%
- pest or weed control at 320 g/ha (Avena fatua): 100%
- pest or weed control at 320 g/ha (Abutilon theophrasti): 80%

Structure (SMILES): CC1(C(=O)N[C@H]2CO[C@@H](C(=O)OCc3ccccc3)C2)CC(c2cccc(F)c2)=NO1 (mixture of isomers) [I-34, benzyl cis-4-[[(5RS)-3-(3-fluorophenyl)-5-methyl-4H-isoxazole-5-carbonyl]amino]tetrahydrofuran-2-carboxylate]
- pest or weed control at 320 g/ha (Setaria viridis): 90%
- pest or weed control at 80 g/ha (Alopecurus myosuroides): 100%
- pest or weed control at 320 g/ha (Stellaria media): 90%
- pest or weed control at 320 g/ha (Avena fatua): 100%
- pest or weed control at 320 g/ha (Abutilon theophrasti): 80%

Structure (SMILES): C=CC1(C(=O)N[C@H]2CO[C@@H](C(=O)OC)C2)CC(c2cc(Cl)cc(Cl)c2)=NO1 (relative stereo) [I-03, methyl cis-4-[[3-(3,5-dichlorophenyl)-5-vinyl-4H-isoxazole-5-carbonyl]amino]tetrahydrofuran-2-carboxylate]
- pest or weed control at 320 g/ha (Setaria viridis): 80%
- pest or weed control at 320 g/ha (Polygonum convolvulus): 80%
- pest or weed control at 320 g/ha (Stellaria media): 90%
- pest or weed control at 320 g/ha (Avena fatua): 80%

Structure (SMILES): COC(=O)[C@H]1C[C@@H](NC(=O)C2(C)CC(c3cc(C)cc(Br)c3)=NO2)CO1 (relative stereo) [I-04, methyl cis-4-[[3-(3-bromo-5-methylphenyl)-5-methyl-4H-isoxazole-5-carbonyl]amino]tetrahydrofuran-2-carboxylate]
- pest or weed control at 320 g/ha (Setaria viridis): 80%
- pest or weed control at 320 g/ha (Polygonum convolvulus): 80%
- pest or weed control at 320 g/ha (Stellaria media): 90%
- pest or weed control at 320 g/ha (Avena fatua): 100%

Structure (SMILES): COC(=O)[C@H]1C[C@@H](NC(=O)C2(OC)CC(c3cc(F)cc(F)c3)=NO2)CO1 (relative stereo) [I-05, methyl cis-4-[[3-(3,5-difluorophenyl)-5-methoxy-4H-isoxazole-5-carbonyl]amino]tetrahydrofuran-2-carboxylate]
- pest or weed control at 320 g/ha (Setaria viridis): 90%
- pest or weed control at 320 g/ha (Polygonum convolvulus): 90%
- pest or weed control at 320 g/ha (Stellaria media): 90%
- pest or weed control at 320 g/ha (Avena fatua): 100%

Structure (SMILES): COC(=O)[C@H]1C[C@@H](NC(=O)C2(C(F)(F)F)CC(c3cc(F)cc(F)c3)=NO2)CO1 (relative stereo) [I-06, methyl cis-4-[[3-(3,5-difluorophenyl)-5-(trifluoromethyl)-4H-isoxazole-5-carbonyl]amino]tetrahydrofuran-2-carboxylate]
- pest or weed control at 320 g/ha (Setaria viridis): 80%
- pest or weed control at 320 g/ha (Polygonum convolvulus): 80%
- pest or weed control at 80 g/ha (Alopecurus myosuroides): 80%
- pest or weed control at 320 g/ha (Stellaria media): 80%
- pest or weed control at 320 g/ha (Avena fatua): 90%

Structure (SMILES): C=CC1(C(=O)N[C@H]2CO[C@@H](C(=O)OC)C2)CC(c2cccc(F)c2)=NO1 (relative stereo) [I-07, methyl cis-4-[[3-(3-fluorophenyl)-5-vinyl-4H-isoxazole-5-carbonyl]amino]tetrahydrofuran-2-carboxylate]
- pest or weed control at 320 g/ha (Setaria viridis): 80%
- pest or weed control at 320 g/ha (Polygonum convolvulus): 80%
- pest or weed control at 320 g/ha (Stellaria media): 90%
- pest or weed control at 320 g/ha (Avena fatua): 90%

Structure (SMILES): COC(=O)[C@H]1C[C@@H](NC(=O)C2(OC)CC(c3ccccc3)=NO2)CO1 (relative stereo) [I-14, methyl cis-4-[(5-methoxy-3-phenyl-4H-isoxazole-5-carbonyl)amino]tetrahydrofuran-2-carboxylate]
- pest or weed control at 320 g/ha (Setaria viridis): 80%
- pest or weed control at 320 g/ha (Polygonum convolvulus): 90%
- pest or weed control at 320 g/ha (Stellaria media): 90%
- pest or weed control at 320 g/ha (Avena fatua): 100%

Structure (SMILES): C=CC1(C(=O)NC2=C(C(=O)OCC)COC2)CC(c2cc(F)cc(F)c2)=NO1 (centres unmarked) [I-23, ethyl 4-[[3-(3,5-difluorophenyl)-5-vinyl-4H-isoxazole-5-carbonyl]amino]-2,5-dihydrofuran-3-carboxylate]
- pest or weed control at 320 g/ha (Polygonum convolvulus): 90%
- pest or weed control at 80 g/ha (Alopecurus myosuroides): 90%
- pest or weed control at 320 g/ha (Stellaria media): 90%
- pest or weed control at 320 g/ha (Avena fatua): 100%

Structure (SMILES): COC(=O)C1=C[C@H](NC(=O)C2(C)CC(c3cccc(F)c3)=NO2)CO1 (stereo partly drawn) [I-39, methyl (3S)-3-[[3-(3-fluorophenyl)-5-methyl-4H-isoxazole-5-carbonyl]amino]-2,3-dihydrofuran-5-carboxylate]
- pest or weed control at 320 g/ha (Setaria viridis): 90%
- pest or weed control at 320 g/ha (Polygonum convolvulus): 80%
- pest or weed control at 320 g/ha (Stellaria media): 90%
- pest or weed control at 320 g/ha (Avena fatua): 100%
- pest or weed control at 320 g/ha (Abutilon theophrasti): 80%

Structure (SMILES): COC(=O)[C@@]1(OC)C[C@@H](NC(=O)C2(C)CC(c3cccc(F)c3)=NO2)CO1 (stereo partly drawn) [I-47, methyl (2R,4R)-4-[[3-(3-fluorophenyl)-5-methyl-4H-isoxazole-5-carbonyl]amino]-2-methoxytetrahydrofuran-2-carboxylate]
- pest or weed control at 320 g/ha (Setaria viridis): 80%
- pest or weed control at 320 g/ha (Polygonum convolvulus): 80%
- pest or weed control at 320 g/ha (Stellaria media): 90%
- pest or weed control at 320 g/ha (Avena fatua): 100%
- pest or weed control at 320 g/ha (Abutilon theophrasti): 80%
